Measured values reported in ChEMBL document CHEMBL1134144, “Macrocyclization in the design of a conformationally constrained Grb2 SH2 domain inhibitor” (Bioorg Med Chem Lett, 2001).

What follows are compounds tested against Growth factor receptor-bound protein 2 (Homo sapiens, UniProt P62993) (assay: Inhibition of Growth factor receptor bound protein 2 SH2 domain binding in ELISA).

IC50 [nM] | SMILES
55 | CC(=O)N[C@@H](Cc1ccc(CP(=O)(O)O)cc1)C(=O)NC1(C(=O)N[C@@H](CC(N)=O)C(=O)NCCCc2cccc3ccccc23)CCCCC1
20 | NC(=O)C[C@@H]1NC(=O)C2(CCCCC2)NC(=O)C[C@@H](c2ccc(CP(=O)(O)O)cc2)/C=C/C[C@@H](Cc2cccc3ccccc23)CNC1=O
20 | NC(=O)C[C@H](NC(=O)C1(NC(=O)[C@H](Cc2ccc(CP(=O)(O)O)cc2)NC(=O)C(=O)O)CCCCC1)C(=O)NCCCc1cccc2ccccc12
2000 | NC(=O)C[C@H](NC(=O)C1(NC(=O)CCc2ccc(CP(=O)(O)O)cc2)CCCCC1)C(=O)NCCCc1cccc2ccccc12
